Drawing on patent publication US9861680B2, “Immunomodulators” (BRISTOL-MYERS SQUIBB COMPANY, priority 2014, dated 2018), this text covers IC50 for twelve molecules.

Numbered stars: 1 amine (or outer) side, 2 acyl side, 3 side chain; on linkers, the order of the positions; unused ones are H or OH. Bridge positions count the residues as written; N and C are the ends. Square brackets hold non-standard residues; d marks the D form. Peptide text beside a SMILES is read from it. X6 = O=C(O)CC[C@H](CC(=O)[C@H](Cc1cnc[nH]1)N[*:1])C(=O)[*:2]; X4 = NC(=O)C[C@H](N[*:1])C(=O)C1CCC[C@H]1C(=O)[*:2]; X5 = CCCC[C@@H](C(=O)[*:2])N(CC)[*:1]; X7 = COCCN([C@@H](C)C(=O)[*:2])[*:1]; X2 = C[C@@H](C(=O)[*:2])N(CCN)[*:1]; NBnAla = C[C@H](NCc1ccccc1)C(=O)O; Hyp = O=C(O)[C@@H]1C[C@@H](O)CN1; Gly(N-CH2CH2OH) = O=C(O)CNCCO; NMeNle = CCCC[C@H](NC)C(=O)O; NEtAla = CCN[C@@H](C)C(=O)O; NMeA = CN[C@@H](C)C(=O)O; Dab = NCC[C@H](N)C(=O)O

T1 sequence (Q9NZQ7 with tags, fused parts or gaps): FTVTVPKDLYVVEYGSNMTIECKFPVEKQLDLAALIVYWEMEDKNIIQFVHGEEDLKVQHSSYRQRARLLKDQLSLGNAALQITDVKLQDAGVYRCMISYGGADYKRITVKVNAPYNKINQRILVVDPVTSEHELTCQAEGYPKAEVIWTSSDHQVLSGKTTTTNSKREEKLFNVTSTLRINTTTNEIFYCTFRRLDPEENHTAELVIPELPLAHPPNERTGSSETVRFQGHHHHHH

This experiment concerns the target T1, PD-1-Ig binding to PD-L1-TVMV-His (PD-L1-His) (Homo sapiens, UniProt Q9NZQ7).
T1 construct: hPDL1(19-239)-TVMV-His; made in house; host or cells: HEK293T
Description: PD-1/PD-L1 Homogenous Time-Resolved Fluorescence (HTRF) binding assay. To be noted: range class; PD-L1-His 10 nM, PD-1-Ig 20 nM. The text has this: Methods for Testing the Ability of Macrocyclic Peptides to Compete for the Binding of Pd-1 to Pd-L1 Using Homogenous Time-Resolved Fluorescence (HTRF) Binding Assays
The ability of the macrocyclic peptides of the present disclosure to bind to PD-L1 was investigated using a PD-1/PD-L1 Homogenous Time-Resolved Fluorescence (HTRF) binding assay.
Homogenous Time-Resolved Fluorescence (HTRF) Assays of Binding of Soluble PD-1 to Soluble PD-L1. Soluble PD-1 and soluble PD-L1 refers to proteins with carboxyl-end truncations that remove the transmembrane-spanning regions and are fused to heterologous sequences, specifically the Fc portion of the human immunoglobuling G sequence (Ig) or the hexahistidine epitope tag (His). All binding studies were performed in an HTRF assay buffer consisting of dPBS supplemented with 0.1% (w/v) bovine serum albumin and 0.05% (v/v) Tween-20. For the PD-1-Ig/PD-L1-His binding assay, inhibitors were pre-incubated with PD-L1-His (10 nM final) for 15 m in 4 μl of assay buffer, followed by addition of PD-1-Ig (20 nM final) in 1 μl of assay buffer and further incubation for 15 m. PD-L1 fusion proteins from either human, cynomologous macaques, mouse, or other species were used. HTRF detection was achieved using europium crypate-labeled anti-Ig monoclonal antibody (1 nM final) and allophycocyanin (APC) labeled anti-His monoclonal antibody (20 nM final). Antibodies were diluted in HTRF detection buffer and 5 μl was dispensed on top of binding reaction. The reaction was allowed to equilibrate for 30 minutes and signal (665 nm/620 nm ratio) was obtained using an EnVision fluorometer. Additional binding assays were established between PD-1-Ig/PD-L2-His (20 and 5 nM, respectively), CD80-His/PD-L1-Ig (100 and 10 nM, respectively) and CD80-His/CTLA4-Ig (10 and 5 nM, respectively). Binding/competition studies between biotinylated Compound No. 71 and human PD-L1-His were performed as follows. Macrocyclic peptide inhibitors were pre-incubated with PD-L1-His (10 nM final) for 60 minutes in 4 μl of assay buffer followed by addition of biotinylated Compound No. 71 (0.5 nM final) in 1 μl of assay buffer. Binding was allowed to equilibrate for 30 minutes followed by addition of europium crypated labeled Streptavidin (2.5 pM final) and APC-labeled anti-His (20 nM final) in 5 μl of HTRF buffer. The reaction was allowed to equilibrate for 30 m and signal (665 nm/620 nm ratio) was obtained using an EnVision fluorometer.
Recombinant Proteins. Carboxyl-truncated human PD-1 (amino acids 25-167) with a C-terminal human Ig epitope tag [hPD-1 (25-167)-3S-IG] and human PD-L1 (amino acids 18-239) with a C-terminal His epitope tag [hPD-L1(19-239)-tobacco vein mottling virus protease cleavage site (TVMV)-His] were expressed in HEK293T cells and purified sequentially by recombinant Protein A affinity chromatography and size exclusion chromatography. Human PD-L2-His (Sino Biologicals), CD80-His (Sino Biologicals), CTLA4-Ig (RnD Systems) were all obtained through commercial sources.
Ranges are as follows: A=0.10-10 μM; B=0.01-0.099 μM; C=0.005-0.0099 μM.
For orientation: IC50 means the concentration that gives 50% inhibition. Take `CCCC[C@H]1C(=O)N(C)[C@@H](CCCC)C(=O)N[C@@H](CC(C)C)C(=O)N[C@H](C(=O)NCC(N)=O)CSCC(=O)N[C@@H](Cc2ccc(O)cc2)C(=O)N(C)[C@@H](C)C(=O)N[C@@H](CC(N)=O)C(=O)N(CC(=O)O)CC(=O)N[C@@H](Cc2cnc[nH]2)C(=O)N[C@@H](CCC(=O)O)C(=O)N2C[C@H](O)C[C@H]2C(=O)N[C@@H](Cc2c[nH]c3ccccc23)C(=O)N[C@@H](CCN)C(=O)N[C@@H](Cc2c[nH]c3ccccc23)C(=O)N1C` [Example 3015]: the IC50 lay within 10 to 99 nM.

In the case of `CCCC[C@H]1C(=O)N(C)[C@@H](CCCC)C(=O)N[C@@H](CC(C)C)C(=O)N[C@H](C(=O)NCC(N)=O)CSCC(=O)N[C@@H](Cc2ccc(O)cc2)C(=O)N(C)[C@@H](C)C(=O)N[C@@H](CC(N)=O)C(=O)N(CCO)CC(=O)N[C@@H](Cc2cnc[nH]2)C(=O)N[C@@H](CCC(=O)O)C(=O)N2C[C@H](O)C[C@H]2C(=O)N[C@@H](Cc2c[nH]c3ccccc23)C(=O)N[C@@H](CCN)C(=O)N[C@@H](Cc2c[nH]c3ccccc23)C(=O)N1C` [Example 3016] ({CH2CO}-Y[NMeA]N[Gly(N-CH2CH2OH)]HE[Hyp]W[Dab]W[NMeNle][NMeNle]LCG-NH2; thioether N-14), the half-inhibitory concentration (IC50) fell in the range of 10 to 99 nM.

In turn, `CCCC[C@H]1C(=O)N(C)[C@@H](CCCC)C(=O)N[C@@H](CC(C)C)C(=O)N[C@H](C(=O)NCC(N)=O)CSCC(=O)N[C@@H](Cc2ccc(O)cc2)C(=O)N(CC)[C@@H](C)C(=O)N[C@@H](CC(N)=O)C(=O)N2CCC[C@H]2C(=O)N[C@@H](Cc2cnc[nH]2)C(=O)C[C@@H](CCC(=O)O)C(=O)N2C[C@H](O)C[C@H]2C(=O)N[C@@H](Cc2c[nH]c3ccccc23)C(=O)N[C@@H](CCN)C(=O)N[C@@H](Cc2c[nH]c3ccccc23)C(=O)N1C` [Example 3017] ({CH2CO}-Y[NEtAla]NP[X6][Hyp]W[Dab]W[NMeNle][NMeNle]LCG-NH2; thioether N-13) gave an IC50 of 5 to 9.9 nM.

`CCCC[C@H]1C(=O)N(C)[C@@H](CCCC)C(=O)N[C@@H](CC(C)C)C(=O)N[C@H](C(=O)NCC(N)=O)CSCC(=O)N[C@@H](Cc2ccc(O)cc2)C(=O)N(Cc2ccccc2)[C@@H](C)C(=O)N[C@@H](CC(N)=O)C(=O)N2CCC[C@H]2C(=O)N[C@@H](Cc2cnc[nH]2)C(=O)N[C@@H](CCC(=O)O)C(=O)N2C[C@H](O)C[C@H]2C(=O)N[C@@H](Cc2c[nH]c3ccccc23)C(=O)N[C@@H](CCN)C(=O)N[C@@H](Cc2c[nH]c3ccccc23)C(=O)N1C` [Example 3019] ({CH2CO}-Y[NBnAla]NPHE[Hyp]W[Dab]W[NMeNle][NMeNle]LCG-NH2; thioether N-14): the half-maximal inhibitory concentration (IC50) lay within 10 to 99 nM.

On to `CCCC[C@H]1C(=O)N(CC)[C@@H](C)C(=O)N[C@@H](CC(C)C)C(=O)N[C@H](C(=O)NCC(N)=O)CSCC(=O)N[C@@H](Cc2ccc(O)cc2)C(=O)N(C)[C@@H](C)C(=O)N[C@@H](CC(N)=O)C(=O)C2CCC[C@H]2C(=O)N[C@@H](Cc2cnc[nH]2)C(=O)N[C@@H](CCC(=O)O)C(=O)N2C[C@H](O)C[C@H]2C(=O)N[C@@H](Cc2c[nH]c3ccccc23)C(=O)N[C@@H](CCN)C(=O)N[C@@H](Cc2c[nH]c3ccccc23)C(=O)N1C` (stereo partly drawn) [Example 3020] ({CH2CO}-Y[NMeA][X4]HE[Hyp]W[Dab]W[NMeNle][NEtAla]LCG-NH2; thioether N-13), for which the IC50 lay in the range of 5 to 9.9 nM.

On to `CCCC[C@H]1C(=O)N(CC)[C@@H](CCCC)C(=O)N[C@@H](CC(C)C)C(=O)N[C@H](C(=O)NCC(N)=O)CSCC(=O)N[C@@H](Cc2ccc(O)cc2)C(=O)N(C)[C@@H](C)C(=O)N[C@@H](CC(N)=O)C(=O)N2CCC[C@H]2C(=O)N[C@@H](Cc2cnc[nH]2)C(=O)N[C@@H](CCC(=O)O)C(=O)N2C[C@H](O)C[C@H]2C(=O)N[C@@H](Cc2c[nH]c3ccccc23)C(=O)N[C@@H](CCN)C(=O)N[C@@H](Cc2c[nH]c3ccccc23)C(=O)N1C` [Example 3021] ({CH2CO}-Y[NMeA]NPHE[Hyp]W[Dab]W[NMeNle][X5]LCG-NH2; thioether N-14), for which the 50% inhibitory concentration (IC50) is 5 to 9.9 nM.

As to `CCCC[C@H]1C(=O)N[C@@H](CC(C)C)C(=O)N[C@H](C(=O)NCC(N)=O)CSCC(=O)N[C@@H](Cc2ccc(O)cc2)C(=O)N(C)[C@@H](C)C(=O)N[C@@H](CC(N)=O)C(=O)N2CCC[C@H]2C(=O)N[C@@H](Cc2cnc[nH]2)C(=O)N[C@@H](CCC(=O)O)C(=O)N2C[C@H](O)C[C@H]2C(=O)N[C@@H](Cc2c[nH]c3ccccc23)C(=O)N[C@@H](CCN)C(=O)N[C@@H](Cc2c[nH]c3ccccc23)C(=O)N(CCN)[C@@H](C)C(=O)N1C` [Example 3022] ({CH2CO}-Y[NMeA]NPHE[Hyp]W[Dab]W[X2][NMeNle]LCG-NH2; thioether N-14), the IC50 lay within 10 to 99 nM.

Molecule `CCCC[C@H]1C(=O)N[C@@H](CC(C)C)C(=O)N[C@H](C(=O)NCC(N)=O)CSCC(=O)N[C@@H](Cc2ccc(O)cc2)C(=O)N(C)[C@@H](C)C(=O)N[C@@H](CC(N)=O)C(=O)N2CCC[C@H]2C(=O)N[C@@H](Cc2cnc[nH]2)C(=O)N[C@@H](CCC(=O)O)C(=O)N2C[C@H](O)C[C@H]2C(=O)N[C@@H](Cc2c[nH]c3ccccc23)C(=O)N[C@@H](CCN)C(=O)N[C@@H](Cc2c[nH]c3ccccc23)C(=O)N(CC)[C@@H](CCCC)C(=O)N1C` [Example 3023] ({CH2CO}-Y[NMeA]NPHE[Hyp]W[Dab]W[X5][NMeNle]LCG-NH2; thioether N-14) had a concentration for half-maximal inhibition (IC50) of 10 to 99 nM.

In turn, `CCCC[C@H]1C(=O)N[C@@H](CC(C)C)C(=O)N[C@H](C(=O)NCC(N)=O)CSCC(=O)N[C@@H](Cc2ccc(O)cc2)C(=O)N(C)[C@@H](C)C(=O)N[C@@H](CC(N)=O)C(=O)N2CCC[C@H]2C(=O)N[C@@H](Cc2cnc[nH]2)C(=O)N[C@@H](CCC(=O)O)C(=O)N2C[C@H](O)C[C@H]2C(=O)N[C@@H](Cc2c[nH]c3ccccc23)C(=O)N[C@@H](CCN)C(=O)N[C@@H](Cc2c[nH]c3ccccc23)C(=O)N(CC)[C@@H](C)C(=O)N1C` [Example 3024] ({CH2CO}-Y[NMeA]NPHE[Hyp]W[Dab]W[NEtAla][NMeNle]LCG-NH2; thioether N-14) yielded a concentration for half-maximal inhibition (IC50) of 10 to 99 nM.

For `CCCC[C@H]1C(=O)N[C@@H](CC(C)C)C(=O)N[C@H](C(=O)NCC(N)=O)CSCC(=O)N[C@@H](Cc2ccc(O)cc2)C(=O)N(C)[C@@H](C)C(=O)N[C@@H](CC(N)=O)C(=O)N2CCC[C@H]2C(=O)N[C@@H](Cc2cnc[nH]2)C(=O)N[C@@H](CCC(=O)O)C(=O)N2C[C@H](O)C[C@H]2C(=O)N[C@@H](Cc2c[nH]c3ccccc23)C(=O)N[C@@H](CCN)C(=O)N[C@@H](Cc2c[nH]c3ccccc23)C(=O)N(CCOC)[C@@H](C)C(=O)N1C` [Example 3025] ({CH2CO}-Y[NMeA]NPHE[Hyp]W[Dab]W[X7][NMeNle]LCG-NH2; thioether N-14), the concentration for half-maximal inhibition (IC50) is 10 to 99 nM.

In the case of `CCCC[C@H]1C(=O)N(C)[C@@H](CCCC)C(=O)N[C@@H](CC(C)C)C(=O)N[C@H](C(=O)NCC(N)=O)CSCC(=O)N[C@@H](Cc2ccc(O)cc2)C(=O)N(CCOC)[C@@H](C)C(=O)N[C@@H](CC(N)=O)C(=O)N2CCC[C@H]2C(=O)N[C@@H](Cc2cnc[nH]2)C(=O)N[C@@H](CCC(=O)O)C(=O)N2C[C@H](O)C[C@H]2C(=O)N[C@@H](Cc2c[nH]c3ccccc23)C(=O)N[C@@H](CCN)C(=O)N[C@@H](Cc2c[nH]c3ccccc23)C(=O)N1C` [Example 3026] ({CH2CO}-Y[X7]NPHE[Hyp]W[Dab]W[NMeNle][NMeNle]LCG-NH2; thioether N-14), the half-inhibitory concentration (IC50) is 10 to 99 nM.

With `CCCC[C@H]1C(=O)N[C@@H](CC(C)C)C(=O)N[C@H](C(=O)NCC(N)=O)CSCC(=O)N[C@@H](Cc2ccc(O)cc2)C(=O)N(C)[C@@H](C)C(=O)N[C@@H](CC(N)=O)C(=O)N2CCC[C@H]2C(=O)N[C@@H](Cc2cnc[nH]2)C(=O)N[C@@H](CCC(=O)O)C(=O)N2C[C@H](O)C[C@H]2C(=O)N[C@@H](Cc2c[nH]c3ccccc23)C(=O)N[C@@H](CCN)C(=O)N[C@@H](Cc2c[nH]c3ccccc23)C(=O)N(CC(=O)O)[C@@H](C)C(=O)N1C` [Example 3028], the IC50 lay within 100 to 10000 nM.
